Reference: ChEMBL document CHEMBL4428082, “Aligning Potency and Pharmacokinetic Properties for Pyridine-Based NCINIs” (ACS Med Chem Lett, 2016)

Columns and labels:
[1] = Inhibition of HIV NL4.3 integrase T124/T125 double mutant assessed as reduction in viral replication by luciferase reporter gene assay; parameters: species or system Human immunodeficiency virus
[2] = Inhibition of HIV NL4.3 integrase N124/T125 double mutant assessed as reduction in viral replication by luciferase reporter gene assay; parameters: species or system Human immunodeficiency virus
[3] = tested on: Human immunodeficiency virus; assay: Ratio of EC50 for HIV1 NL4.3 integrase N124/T125 double mutant in presence of human serum to EC50 for HIV1 NL4.3 integrase N124/T125 double mutant in absence of human serum
[4] = Half life in human liver microsomes; format: ADME, Microsome
[5] = Clearance in rat relative to hepatic blood flow; format: ADME; conditions: in vivo
[6] = Apparent permeability in human Caco2 cells; format: ADME, cell-based; conditions: Caco-2
[7] = Solubility of the compound at pH 6.8; format: physicochemical; conditions: buffer
[8] = Clearance in human hepatocytes relative to hepatic blood flow; format: ADME, cell-based, Hepatocyte; conditions: read-out: CLH
[9] = Clearance in rat hepatocytes relative to hepatic blood flow; format: ADME, cell-based, Hepatocyte; conditions: read-out: CLH
[10] = Clearance in iv dosed rat relative to hepatic blood flow; format: ADME, organism-based; conditions: in vivo
[11] = Volume of distribution at steady state in rat; format: ADME; conditions: in vivo, read-out: Vdss
[12] = Total drug excretion in rat bile assessed as acyl glucuronide of parent compound at 3 hrs; format: ADME, tissue-based; conditions: in vivo

For `Cc1nc(NC(=O)c2ccccc2)c(C)c(-c2ccc(Cl)cc2)c1[C@H](OC(C)(C)C)C(=O)O`, which EC50 [1] is on record?
The EC50 was 15 nM.

And the EC50 [2]?
The EC50 was 1100 nM.

For `Cc1nc(C(=O)N[C@H]2CC[C@H](C)CC2)c(C)c(-c2ccc3c4c(cccc24)CCO3)c1[C@H](OC(C)(C)C)C(=O)O`, which EC50 [1] is on record?
The EC50 was 16 nM.

What about the EC50 [2] of the same compound?
The EC50 was greater than 2500 nM.

And the Ratio EC50 [3]?
Its Ratio EC50 is 2.9.

What about the half-life [4] of the same compound?
The half-life was greater than 5 h.

For `Cc1nc(C(=O)N[C@H]2CC[C@H](C)CC2)c(C)c(-c2ccc3c(c2)N(C)CCO3)c1[C@H](OC(C)(C)C)C(=O)O`, which EC50 [1] is on record?
The EC50 was 6.8 nM.

What about the EC50 [2] of the same compound?
The EC50 was 600 nM.

And the Ratio EC50 [3]?
Its Ratio EC50 is 4.1.

What about the half-life [4] of the same compound?
The half-life was greater than 5 h.

For `Cc1nc(C(=O)NC(C)(C)C2CC2)c(C)c(-c2ccc(Cl)cc2)c1[C@H](OC(C)(C)C)C(=O)O`, which EC50 [1] is on record?
The EC50 was 4.4 nM.

And the EC50 [2]?
Its EC50 is 560 nM.

What about the Ratio EC50 [3] of the same compound?
Its Ratio EC50 is 1.5.

What about the half-life [4] of the same compound?
The half-life was 3.63 h.

With `Cc1nc(C(=O)N[C@H]2CC[C@H](C)CC2)c(C)c(-c2ccc3c(c2)NCCO3)c1[C@H](OC(C)(C)C)C(=O)O` as the compound, how does the EC50 [1] read?
The EC50 was 27 nM.

And the EC50 [2]?
Its EC50 is 280 nM.

What about the Ratio EC50 [3] of the same compound?
The Ratio EC50 was 2.1.

And the half-life [4]?
Its half-life is greater than 5 h.

What does the source list for `Cc1nc(C(=O)N[C@H]2CC[C@H](C)CC2)c(C)c(-c2ccc(Cl)cc2)c1[C@H](OC(C)(C)C)C(=O)O`?
EC50 [1]: 7.3 nM; EC50 [2]: 570 nM; Ratio EC50 [3]: 3.7; half-life [4]: 3.07 h

Which EC50 [1] does the source give for `Cc1nc2ccccc2c(-c2ccc3c4c(ccnc24)CCO3)c1[C@H](OC(C)(C)C)C(=O)O` [BI-224436] here?
Its EC50 is 19 nM.

And the EC50 [2]?
The EC50 was 30 nM.

And the CL [5]?
Its CL is 0.7%.

For `Cc1cccc(NC(=O)c2nc(C)c([C@H](OC(C)(C)C)C(=O)O)c(-c3ccc(Cl)cc3)c2C)c1`, which EC50 [1] is on record?
The EC50 was 3.7 nM.

What about the half-life [4] of the same compound?
Its half-life is greater than 5 h.

Which EC50 [1] does the source give for `Cc1ccc2[nH]c(-c3nc(C)c([C@H](OC(C)(C)C)C(=O)O)c(-c4ccc(Cl)cc4)c3C)nc2c1` here?
Its EC50 is 1.1 nM.

What about the Ratio EC50 [3] of the same compound?
The Ratio EC50 was 13.

And the half-life [4]?
The half-life was 2.77 h.

Which EC50 [1] does the source give for `Cc1noc(C)c1-c1ccc(-c2nc(C)c([C@H](OC(C)(C)C)C(=O)O)c(-c3ccc4c(c3)CCCO4)c2C)cc1` here?
Its EC50 is 5.5 nM.

And the EC50 [2]?
The EC50 was 390 nM.

And the Ratio EC50 [3]?
Its Ratio EC50 is 7.8.

For `Cc1nc(-c2nc3ccccc3n2C)c(C)c(-c2ccc3c(c2C)N(C)CCO3)c1[C@H](OC(C)(C)C)C(=O)O`, which EC50 [1] is on record?
Its EC50 is 3.3 nM.

What about the EC50 [2] of the same compound?
The EC50 was 59 nM.

What about the Ratio EC50 [3] of the same compound?
The Ratio EC50 was 4.9.

And the half-life [4]?
Its half-life is 3.25 h.

And the Papp [6]?
Its Papp is 10.6 ×10⁻⁶ cm/s.

What about the solubility [7] of the same compound?
The solubility was greater than 1000 µg/mL.

And the hepatic extraction ratio [8]?
The hepatic extraction ratio was 0.24.

What about the hepatic extraction ratio [9] of the same compound?
The hepatic extraction ratio was 0.19.

And the CL [10]?
The CL was 24%.

What about the Vd [11] of the same compound?
Its Vd is 1.6 L/kg.

And the Drug excretion [12]?
Its Drug excretion is 70%.

With `Cc1nc(NC(=O)c2ccccc2OC(F)(F)F)c(C)c(-c2ccc3c(c2)N(C)CCO3)c1[C@H](OC(C)(C)C)C(=O)O` as the compound, how does the EC50 [1] read?
Its EC50 is 7.4 nM.

And the EC50 [2]?
The EC50 was 220 nM.

And the Ratio EC50 [3]?
The Ratio EC50 was 3.4.

And the half-life [4]?
The half-life was greater than 5 h.

Which EC50 [1] does the source give for `Cc1nc(-c2cn(-c3ccccc3)nn2)c(C)c(-c2ccc3c(c2)CCCO3)c1[C@H](OC(C)(C)C)C(=O)O` here?
Its EC50 is 4.7 nM.

And the EC50 [2]?
The EC50 was 310 nM.

What about the Ratio EC50 [3] of the same compound?
The Ratio EC50 was 17.
